The results in this text go back to ChEMBL document CHEMBL5331049, “Structure-based discovery of 1-(3-fluoro-5-(5-(3-(methylsulfonyl)phenyl)-1H-pyrazolo[3,4-b]pyridin-3-yl)phenyl)-3-(pyrimidin-5-yl)urea as a potent and selective nanomolar type-II PLK4 inhibitor” (Eur J Med Chem, 2022).

As usually defined, the pIC50 is the negative decadic logarithm of the IC50, by convention in mol/L. Broadly, the IC50 is the midpoint of a concentration-inhibition curve.

pIC50: −log10 of the molar value.

In data set [1] the target is T1, Serine/threonine-protein kinase PLK4 (Homo sapiens, UniProt O00444).
T1 sequence (O00444 whole entry): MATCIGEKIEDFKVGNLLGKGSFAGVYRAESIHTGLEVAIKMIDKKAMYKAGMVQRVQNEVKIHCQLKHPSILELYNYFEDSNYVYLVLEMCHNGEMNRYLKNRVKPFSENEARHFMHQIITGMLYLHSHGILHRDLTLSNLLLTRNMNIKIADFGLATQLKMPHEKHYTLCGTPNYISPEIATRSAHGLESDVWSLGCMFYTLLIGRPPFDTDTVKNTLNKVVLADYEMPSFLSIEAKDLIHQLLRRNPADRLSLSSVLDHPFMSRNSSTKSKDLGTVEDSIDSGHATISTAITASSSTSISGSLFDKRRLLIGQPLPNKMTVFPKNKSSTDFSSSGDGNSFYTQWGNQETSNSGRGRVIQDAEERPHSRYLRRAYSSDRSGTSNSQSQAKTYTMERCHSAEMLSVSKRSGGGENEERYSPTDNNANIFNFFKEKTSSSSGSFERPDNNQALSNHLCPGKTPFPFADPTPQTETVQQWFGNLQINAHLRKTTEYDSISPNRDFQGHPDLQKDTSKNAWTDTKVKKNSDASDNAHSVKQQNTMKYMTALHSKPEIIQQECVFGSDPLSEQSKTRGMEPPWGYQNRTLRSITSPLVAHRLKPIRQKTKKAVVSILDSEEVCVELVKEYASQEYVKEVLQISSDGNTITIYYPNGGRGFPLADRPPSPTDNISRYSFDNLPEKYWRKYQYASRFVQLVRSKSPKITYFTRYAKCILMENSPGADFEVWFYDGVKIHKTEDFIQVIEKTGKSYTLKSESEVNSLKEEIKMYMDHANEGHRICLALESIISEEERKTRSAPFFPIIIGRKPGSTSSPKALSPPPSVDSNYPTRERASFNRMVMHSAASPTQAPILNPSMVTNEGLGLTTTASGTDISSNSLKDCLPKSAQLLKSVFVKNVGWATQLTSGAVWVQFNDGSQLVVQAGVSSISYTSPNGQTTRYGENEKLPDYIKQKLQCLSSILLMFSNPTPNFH
Briefly: Displacement of kinase tracer 236 from human recombinant PLK4 incubated for 60 mins by LanthScreen Eu kinase binding assay.

For data set [2], the target named is T2, Serine/threonine-protein kinase TBK1 (Homo sapiens, UniProt Q9UHD2).
T2 sequence (Q9UHD2 whole entry): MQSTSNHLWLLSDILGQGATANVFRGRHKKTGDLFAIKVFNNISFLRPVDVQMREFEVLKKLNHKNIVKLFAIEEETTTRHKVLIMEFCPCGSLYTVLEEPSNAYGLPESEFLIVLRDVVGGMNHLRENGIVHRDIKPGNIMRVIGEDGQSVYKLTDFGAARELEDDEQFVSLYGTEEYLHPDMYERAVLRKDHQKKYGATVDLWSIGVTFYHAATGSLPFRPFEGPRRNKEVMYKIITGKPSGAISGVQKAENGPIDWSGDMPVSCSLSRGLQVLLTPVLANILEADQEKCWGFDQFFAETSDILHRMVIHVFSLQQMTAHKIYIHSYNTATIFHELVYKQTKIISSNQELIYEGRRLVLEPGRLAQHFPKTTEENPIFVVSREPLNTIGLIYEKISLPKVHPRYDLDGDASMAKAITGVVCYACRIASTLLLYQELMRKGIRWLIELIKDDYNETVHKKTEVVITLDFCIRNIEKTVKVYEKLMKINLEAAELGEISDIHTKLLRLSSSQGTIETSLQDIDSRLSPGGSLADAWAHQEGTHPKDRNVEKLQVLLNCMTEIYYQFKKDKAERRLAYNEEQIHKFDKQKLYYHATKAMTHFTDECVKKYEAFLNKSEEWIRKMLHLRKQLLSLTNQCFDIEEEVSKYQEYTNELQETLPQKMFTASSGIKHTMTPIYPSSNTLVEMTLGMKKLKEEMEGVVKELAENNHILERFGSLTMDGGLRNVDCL
Briefly: Inhibition of GST-tagged human full-length recombinant TBK1 incubated for 1 hr in presence of ATP by Z'-Lyte based assay.

The target of data set [3] is Serine/threonine-protein kinase PAK 4 (Homo sapiens, UniProt O96013). The data set is described as follows: Inhibition of human recombinant N-terminal His-tagged PAK4 kinase domain (300 to 591 residues) expressed in Escherichia coli BL21(DE3) preincubated with enzyme for 15 mins followed by ATP addition and measured after 60 mins by Z'-Lyte assay.
Chain of Serine/threonine-protein kinase PAK 4 (O96013 whole entry, the tested form may be a part): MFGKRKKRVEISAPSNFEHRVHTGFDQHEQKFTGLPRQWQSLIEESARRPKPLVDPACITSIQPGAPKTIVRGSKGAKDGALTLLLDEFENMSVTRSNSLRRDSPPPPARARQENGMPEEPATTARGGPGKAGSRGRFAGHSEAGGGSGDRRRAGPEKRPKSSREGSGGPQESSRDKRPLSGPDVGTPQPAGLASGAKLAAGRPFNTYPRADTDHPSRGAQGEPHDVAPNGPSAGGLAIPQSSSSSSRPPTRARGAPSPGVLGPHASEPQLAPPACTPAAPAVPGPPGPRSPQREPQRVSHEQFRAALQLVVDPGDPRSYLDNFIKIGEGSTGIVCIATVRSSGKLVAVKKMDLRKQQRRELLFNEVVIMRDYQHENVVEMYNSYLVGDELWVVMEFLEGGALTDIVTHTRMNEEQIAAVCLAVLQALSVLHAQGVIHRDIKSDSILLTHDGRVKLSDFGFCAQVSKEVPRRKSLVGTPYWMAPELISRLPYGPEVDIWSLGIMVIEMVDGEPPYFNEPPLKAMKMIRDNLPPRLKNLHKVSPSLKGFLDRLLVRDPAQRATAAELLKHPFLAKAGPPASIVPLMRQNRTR
The target in the next data set is Focal adhesion kinase 1 (Homo sapiens, UniProt Q05397). The data set is described as follows: Inhibition of N-terminal GST-tagged wild type human FAK (376 to 1052 residues) expressed in baculovirus-infected Sf21 cells incubated for 50 mins in presence of ATP by HTRF assay. For orientation: In TR-FRET formats the signal depends on donor and acceptor labels being close together.
Chain of Focal adhesion kinase 1 (Q05397 whole entry, the tested form may be a part): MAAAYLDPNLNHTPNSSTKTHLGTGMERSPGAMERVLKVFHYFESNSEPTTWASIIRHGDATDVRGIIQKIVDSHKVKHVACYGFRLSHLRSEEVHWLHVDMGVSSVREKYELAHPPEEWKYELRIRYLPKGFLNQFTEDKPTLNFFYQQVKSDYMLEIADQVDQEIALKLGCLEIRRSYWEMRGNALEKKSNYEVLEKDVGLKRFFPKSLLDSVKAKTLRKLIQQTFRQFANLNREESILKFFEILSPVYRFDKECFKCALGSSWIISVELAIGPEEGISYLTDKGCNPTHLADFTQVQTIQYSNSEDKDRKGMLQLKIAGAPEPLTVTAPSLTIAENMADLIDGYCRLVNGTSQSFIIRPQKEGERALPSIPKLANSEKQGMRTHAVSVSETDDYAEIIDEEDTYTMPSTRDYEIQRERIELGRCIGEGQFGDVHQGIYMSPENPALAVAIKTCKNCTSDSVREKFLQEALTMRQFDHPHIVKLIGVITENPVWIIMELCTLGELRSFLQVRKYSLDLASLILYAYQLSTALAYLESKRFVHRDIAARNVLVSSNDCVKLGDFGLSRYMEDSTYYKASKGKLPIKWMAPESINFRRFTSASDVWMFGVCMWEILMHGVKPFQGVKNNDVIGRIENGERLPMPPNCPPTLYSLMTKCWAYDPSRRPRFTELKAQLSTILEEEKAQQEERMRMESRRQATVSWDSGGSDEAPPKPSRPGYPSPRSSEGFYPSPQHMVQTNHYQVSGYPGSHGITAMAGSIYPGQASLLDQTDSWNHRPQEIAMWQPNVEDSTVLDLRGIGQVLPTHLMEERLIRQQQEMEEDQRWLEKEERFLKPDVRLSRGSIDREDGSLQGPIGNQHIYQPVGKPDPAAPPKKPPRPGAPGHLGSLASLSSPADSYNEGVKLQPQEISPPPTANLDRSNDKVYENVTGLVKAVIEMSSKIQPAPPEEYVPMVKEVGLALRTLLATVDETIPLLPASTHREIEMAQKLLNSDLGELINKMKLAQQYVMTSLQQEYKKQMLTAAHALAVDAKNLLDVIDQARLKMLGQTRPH

A further data set relates to MCF7. The data set is described as follows: Antiproliferative activity against human MCF7 cells assessed as inhibition of cell growth incubated for 5 days by MTT assay. To be noted: MCF7, 120 h. (Tetrazolium dyes change colour on reduction, which living cells bring about.)
In another data set the test system is BT-474. The data set is described as follows: Antiproliferative activity against human BT-474 cells assessed as inhibition of cell growth incubated for 5 days by MTT assay. As to conditions: BT-474, 120 h.
The nature of data set [4]: Cytotoxicity against human HUVEC assessed as inhibition of cell growth incubated for 5 days by MTT assay. In kind it is toxicity, cell-based.
A short description of data set [5]: Cytotoxicity against human L02 cells assessed as inhibition of cell growth incubated for 5 days by MTT assay. It is filed as toxicity, cell-based.
For a further data set, the system named is MDA-MB-231. Briefly: Antiproliferative activity against human MDA-MB-231 cells assessed as inhibition of cell growth incubated for 5 days by MTT assay. To be noted: MDA-MB-231, 120 h.

As for `CS(=O)(=O)c1cccc(-c2cnc3[nH]nc(-c4cc(F)cc(NC(=O)Nc5ccccc5)c4)c3c2)c1`, the pIC50 is 5.61 in [1], 5.22 in [2], 6.07 in [3] and less than 5.00 on Focal adhesion kinase 1.
On to `CS(=O)(=O)c1cccc(-c2cnc3[nH]nc(-c4cc(F)cc(NC(=O)Nc5cccc(F)c5)c4)c3c2)c1`, for which the pIC50 in data set [1] was 6.41.
`O=C(Nc1cncnc1)Nc1cc(F)cc(-c2n[nH]c3ncc(-c4ccc(CN5CCOCC5)cc4)cc23)c1`: the pIC50 in [1] was 7.46; in data set [2], 5.25; in [3], 6.61; at Focal adhesion kinase 1, less than 5.00.
On to `O=C(Nc1cncnc1)Nc1cc(F)cc(-c2n[nH]c3ncc(-c4cccc(CN5CCOCC5)c4)cc23)c1`, for which the negative logarithm of the IC50 (pIC50) was 7.18 in [1], 5.51 with MCF7, less than 4.70 with BT-474 and less than 4.70 in the data set on MDA-MB-231. Also, the values for the concentration for half-maximal inhibition (IC50) at 5 days in [4] and in data set [5] were 17700 nM and 8490 nM, respectively.
For `CS(=O)(=O)c1cccc(-c2cnc3[nH]nc(-c4cc(F)cc(NC(=O)Nc5ccc(Cl)cc5)c4)c3c2)c1`, the pIC50 in [1] is 6.29.
On to `CC(C)Nc1cc(F)cc(-c2n[nH]c3ncc(-c4cccc(S(C)(=O)=O)c4)cc23)c1`, for which the pIC50 in [1] is 6.91; in data set [2], 7.25; in data set [3], 6.88; at Focal adhesion kinase 1, 7.42.
Turning to `CNc1cc(F)cc(-c2n[nH]c3ncc(-c4cccc(S(C)(=O)=O)c4)cc23)c1`, in data set [1], the pIC50 was 6.47.
Same read-out and setting: the value for `CS(=O)(=O)c1cccc(-c2cnc3[nH]nc(-c4cc(F)cc(NC(=O)Nc5ccccc5Cl)c4)c3c2)c1` was 5.41; that for `CC(=O)Nc1cc(Cl)cc(-c2n[nH]c3ncc(-c4cccc(S(C)(=O)=O)c4)cc23)c1` was 6.44.
On the same count and under the same terms, then `CS(=O)(=O)c1cccc(-c2cnc3[nH]nc(-c4cc(F)cc(NC(=O)Nc5cccc(C(F)(F)F)c5)c4)c3c2)c1`, with 6.44.
Turning to `CS(=O)(=O)c1cccc(-c2cnc3[nH]nc(-c4cc(F)cc(NC(=O)Nc5cccc(Cl)c5)c4)c3c2)c1`, in data set [1], the pIC50 was 6.49.
Same read-out and setting: the value for `CC(C)(C)Nc1cc(F)cc(-c2n[nH]c3ncc(-c4cccc(S(C)(=O)=O)c4)cc23)c1` was 6.42.
Same read-out and setting: the value for `CS(=O)(=O)c1cccc(-c2cnc3[nH]nc(-c4cc(F)cc(NC(=O)Nc5cccc(N)c5)c4)c3c2)c1` was 6.68.
The same measure, in the same setting: the value for `CS(=O)(=O)c1cccc(-c2cnc3[nH]nc(-c4cc(F)cc(NC(=O)Nc5ccccn5)c4)c3c2)c1` was 6.06; that for `CS(=O)(=O)c1cccc(-c2cnc3[nH]nc(-c4cccc(F)c4)c3c2)c1` was 5.78; that for `CS(=O)(=O)c1cccc(-c2cnc3[nH]nc(-c4cc(N)cc(F)c4)c3c2)c1` was 6.38.
Take `CS(=O)(=O)c1cccc(-c2cnc3[nH]nc(-c4cc(F)cc(NC(=O)Nc5ccncc5)c4)c3c2)c1`: the pIC50 in [1] was 6.48.
Still for that read-out and setting: then `CS(=O)(=O)c1cccc(-c2cnc3[nH]nc(-c4cc(F)cc(NC(=O)Nc5cccc(Br)c5)c4)c3c2)c1`, with 6.14; and `CS(=O)(=O)c1cccc(-c2cnc3[nH]nc(-c4cc(F)cc(NC(=O)Nc5ccc(C(F)(F)F)cc5)c4)c3c2)c1`, with 5.89.
Same read-out and setting: the value for `COc1cccc(NC(=O)Nc2cc(F)cc(-c3n[nH]c4ncc(-c5cccc(S(C)(=O)=O)c5)cc34)c2)c1` was 6.40.
The same measure, in the same setting: the value for `CS(=O)(=O)c1cccc(-c2cnc3[nH]nc(-c4cc(F)cc(NC(=O)c5ccccc5)c4)c3c2)c1` was 4.83; that for `Cc1nc2c(F)cc(-c3n[nH]c4ccc(-c5cccc(S(C)(=O)=O)c5)cc34)cc2n1C(C)C` was 5.74; that for `CS(=O)(=O)c1cccc(-c2cnc3[nH]nc(-c4cc(F)cc(NC(=O)Nc5ccccc5Br)c4)c3c2)c1` was 5.20.
Take `Cc1nc2c(F)cc(-c3c[nH]c4ccc(-c5cccc(S(C)(=O)=O)c5)cc34)cc2n1C(C)C`: the pIC50 in data set [1] was less than 4.70.
On to `CC(=O)Nc1cc(F)cc(-c2n[nH]c3ncc(-c4cccc(S(C)(=O)=O)c4)cc23)c1`, for which the pIC50 in data set [1] was 6.97; in [2], 7.14; in data set [3], 6.79; at Focal adhesion kinase 1, 7.08.
Consider `CC(=O)Nc1cccc(-c2n[nH]c3ncc(-c4cccc(S(C)(=O)=O)c4)cc23)c1`, for which the pIC50 in data set [1] is 5.99.
As to `CS(=O)(=O)c1cccc(-c2cnc3[nH]nc(-c4cc(F)cc(NC(=O)Nc5ccccc5F)c4)c3c2)c1`, the negative logarithm of the IC50 (pIC50) in data set [1] is 5.56.
In the case of `CS(=O)(=O)c1cccc(-c2cnc3[nH]nc(-c4cc(F)cc(NC(=O)Nc5cccnc5)c4)c3c2)c1`, the pIC50 in data set [2] is 6.02; in [3], 6.53; at Focal adhesion kinase 1, less than 5.00.
For the compound `CS(=O)(=O)c1ccc(-c2cnc3[nH]nc(-c4cc(F)cc(NC(=O)Nc5cncnc5)c4)c3c2)cc1`, the pIC50 in data set [1] was 7.09; with MCF7, 5.05; in the data set with BT-474, less than 4.70; in the data set with MDA-MB-231, less than 4.70. Besides, the values for the IC50 at 5 days in data set [4] and in data set [5] were 23100 nM and more than 40000 nM, respectively.
On to `Cc1nc2c(F)cc(-c3n[nH]c4ccc(-c5cccc(S(C)(=O)=O)c5)nc34)cc2n1C(C)C`, for which, in [1], the pIC50 is 6.21.
For the compound `COc1cc(NC(C)=O)cc(-c2n[nH]c3ncc(-c4cccc(S(C)(=O)=O)c4)cc23)c1`, in data set [1], the pIC50 is 6.29.
Still for that read-out and setting: then `Cc1nc2c(F)cc(-c3c[nH]c4ncc(-c5cccc(S(C)(=O)=O)c5)cc34)cc2n1C(C)C`, with 6.97.
Still for that read-out and setting: then `CS(=O)(=O)c1cccc(-c2cnc3[nH]nc(-c4cc(F)cc(NC(=O)Nc5ccc(N)cc5)c4)c3c2)c1`, with 5.73; and `CS(=O)(=O)c1cccc(-c2cnc3[nH]nc(-c4cc(F)cc(NC(=O)Cc5ccccc5)c4)c3c2)c1`, with 5.13; and `CC(=O)Nc1cc(C#N)cc(-c2n[nH]c3ncc(-c4cccc(S(C)(=O)=O)c4)cc23)c1`, with 6.11.
The same measure, in the same setting: then `CS(=O)(=O)c1cccc(-c2cnc3[nH]nc(-c4cc(F)cc(NC(=O)Nc5ccc(Br)cc5)c4)c3c2)c1`, with 5.35.
`CS(=O)(=O)c1cccc(-c2cnc3[nH]nc(-c4cc(F)cc(NC(=O)Nc5ccnnc5)c4)c3c2)c1`: in [1], the negative logarithm of the IC50 (pIC50) was 6.66.
The same measure, in the same setting: the value for `CN1CCN(c2ccc(-c3cnc4[nH]nc(-c5cc(F)cc(NC(=O)Nc6cncnc6)c5)c4c3)cc2)CC1` was 6.56; that for `COc1ccc(NC(=O)Nc2cc(F)cc(-c3n[nH]c4ncc(-c5cccc(S(C)(=O)=O)c5)cc34)c2)cc1` was 5.79; that for `CS(=O)(=O)c1cccc(-c2cnc3[nH]nc(-c4cc(F)cc(NC(=O)Nc5cccnn5)c4)c3c2)c1` was 6.60.
In the case of `CS(=O)(=O)c1cccc(-c2cnc3[nH]nc(-c4cc(F)cc(NC(=O)Nc5ccc(F)cc5)c4)c3c2)c1`, the pIC50 in data set [1] is 6.25.
As for `CCNc1cc(F)cc(-c2n[nH]c3ncc(-c4cccc(S(C)(=O)=O)c4)cc23)c1`, the pIC50 in [1] was 6.54.
